What was measured:
Aedes aegypti = experiment: Warm Body assay, mosquito landings on treated warm body; format: in vivo; conditions: for pest or weed control at 16 µg/mL / pest or weed control at 400 µg/mL / pest or weed control at 10000 µg/mL / pest or weed control at 1 % / pest or weed control at 0.04 %: Aedes aegypti; for pest or weed control at 16 µg/mL / pest or weed control at 400 µg/mL / pest or weed control at 10000 µg/mL: read-out: Percentage of repellence of mosquitoes Aedes aegypti landing on the warm body; for pest or weed control at 1 %: highest tested concentration, 1% (Table 3); for pest or weed control at 1 % / pest or weed control at 0.04 %: read-out: repellence; for pest or weed control at 0.04 %: intermediate concentration of 0.04% (Table 3)
Experimental: The arthropod controlling effect according to the present invention is determined on mosquitoes using an adapted Warm Body assay as defined in Kröber T, Kessler S, Frei J, Bourquin M, Guerin PM. An in vitro assay for testing mosquito controlling compounds employing a warm body and carbon dioxide as a behavioral activator. J Am Mosq Control Assoc. 2010; 26: 381-386. Further information is provided in the accompanying examples
The controlling effect, repellence & spatial repellence, according to the present invention is determined by testing the Warm Body assay against the yellow fever mosquito, Aedes aegypti Rockefeller strain. […] Observations of controlling efficacy were made on host-seeking females of uniform age, 5 to 10 days old selected as mentioned in the publication mentioned hereinabove. Tested hungry females had access to 10% sugar solution but were not blood-fed. Further information is provided in the accompanying examples.
The published protocol has been adapted in not manually counting the landing mosquitoes but automatically using an automatic counting software, the switch from Anopheles gambiae to A. aegypti led to a decrease of mosquitoes' number placed in the tested cage due to the size difference (i.e. 30 mosquitoes instead of 50) and to an increase of lighting as A. aegypti is a diurnal mosquitoes (i.e. 150 lux instead of 4 lux). Further information is provided in the accompanying examples. […]
(§1) The controlling effect according to the present invention was assessed using an adapted Warm Body assay as defined in Kröber T, Kessler S, Frei J, Bourquin M, Guerin P M. 2010. J Am Mosq Control Assoc. 26: 381-386. In this in-vitro assay the number of mosquito landing on a warm body, simulating an attractive host treated with the tested stimuli, was measured in order to assess the repellence effect.
The published protocol has been adapted as the switch from Anopheles gambiae to Aedes aegypti led to a decrease of mosquitoes placed in the tested cage due to the size difference (i.e. 30 mosquitoes instead of 50) and to an increase of lighting since A. aegypti is a diurnal mosquitoes (i.e. 150 lux instead of 4 lux).
(§2) On the sandblasted glass Petri dish covering the warm body (28.3 cm^2), 100 μL of the compounds diluted at different concentrations in ethanol was applied. The number of mosquito landing on the warm body was counted for each stimulus and pure ethanol (solvent) as control.

Anopheles gambiae = experiment: as above; format: in vivo; conditions: Anopheles gambiae, read-out: Percentage of repellence of mosquitoes Anopheles gambiae landing on the warm body; for pest or weed control at 178 µg/mL: 0.178 mg/mL (Table 4); for pest or weed control at 267 µg/mL: 0.267 mg/mL (Table 4); for pest or weed control at 400 µg/mL: 0.4 mg/mL (Table 4); for pest or weed control at 4470 µg/mL: 4.47 mg/mL (Table 4); for pest or weed control at 10000 µg/mL: 10 mg/mL (Table 4)
Experimental: Anopheles gambiae is also a model organism as it is anthropophilic and transmits malaria.
as §1, §2

Ixodes ricinus = experiment: Warm Plate assay, tick repellence; conditions: for pest or weed control at 400 µg/mL / pest or weed control at 2000 µg/mL / pest or weed control at 10000 µg/mL: Ixodes ricinus, read-out: Percentage of repellence of ticks Ixodes ricinus on the warm plate

Compound	pest or weed control at 16 µg/mL (Aedes aegypti; 0.016 mg/mL (Table 3))	pest or weed control at 400 µg/mL (Aedes aegypti; 0.4 mg/mL (Table 3))	pest or weed control at 10000 µg/mL (Aedes aegypti; 10 mg/mL (Table 3))	pest or weed control at 1 % (Aedes aegypti)	pest or weed control at 0.04 % (Aedes aegypti)	pest or weed control at 400 µg/mL (Ixodes ricinus)	pest or weed control at 2000 µg/mL (Ixodes ricinus)	pest or weed control at 10000 µg/mL (Ixodes ricinus)	other results
COc1ccc(CC(=O)O)cc1OC [compound 1564, 2-(3,4-dimethoxyphenyl)acetic acid]	24%	69%	82%						pest or weed control at 178 µg/mL (Anopheles gambiae): 42%; pest or weed control at 267 µg/mL (Anopheles gambiae): 58%; pest or weed control at 400 µg/mL (Anopheles gambiae): 9%; pest or weed control at 4470 µg/mL (Anopheles gambiae): 97%; pest or weed control at 10000 µg/mL (Anopheles gambiae): 97%
CC(C)c1ccc2c(c1)OCC(=O)CO2 [compound 1232, isopropyl-2H,4H-1,5-benzodioxepin-3-one, 7-]	0%	32%	86%						pest or weed control at 178 µg/mL (Anopheles gambiae): 27%; pest or weed control at 267 µg/mL (Anopheles gambiae): 34%; pest or weed control at 400 µg/mL (Anopheles gambiae): 65%; pest or weed control at 4470 µg/mL (Anopheles gambiae): 91%; pest or weed control at 10000 µg/mL (Anopheles gambiae): 86%
CCOCc1ccc(O)c(OCC)c1 [compound 1482, 2-ethoxy-4-(ethoxymethyl)phenol]	31%	82%	96%	> 90%	> 75%	30.8%	66.7%	100%	ticks repelled (Ixodes ricinus; concentration of 1% (Table 10)): repel all the ticks
COc1ccc(C=O)c(OC)c1OC [compound 2267, 2,3,4-trimethoxybenzaldehyde]	0%	81%	96%	> 90%	> 75%	66.7%	86.7%	71.4%	
COc1ccc(C(C)=O)c(OC)c1 [compound 1557, 2,4-dimethoxyacetophenone]									Percentage of repellence of mosquitoes Aedes aegypti landing on the warm body (Aedes aegypti; 0.016 mg/mL (Table 3)): 81%; Percentage of repellence of mosquitoes Aedes aegypti landing on the warm body (Aedes aegypti; 0.4 mg/mL (Table 3)): 93%; Percentage of repellence of mosquitoes Aedes aegypti landing on the warm body (Aedes aegypti; 10 mg/mL (Table 3)): 96%; Percentage of repellence of ticks Ixodes ricinus on the warm plate (Ixodes ricinus; 0.4 mg/mL (Table 10)): 25.0%; Percentage of repellence of ticks Ixodes ricinus on the warm plate (Ixodes ricinus; 2 mg/mL (Table 10)): 69.2%; Percentage of repellence of ticks Ixodes ricinus on the warm plate (Ixodes ricinus; 10 mg/mL (Table 10)): 66.7%
CC=Cc1cccc(OC)c1OC [compound 1125, 1,2-dimethoxy-3-prop-1-enylbenzene]	32%	78%	92%	> 90%	> 75%	25%	36.4%	91.7%	repellence of ticks Ixodes ricinus (Ixodes ricinus; 1% of stimulus applied (Table 9)): above 90%
COc1ccc(C(C)=O)c(O)c1 [compound 1559, 2-hydroxy-4-methoxyacetophenone]									Percentage of repellence of mosquitoes Aedes aegypti landing on the warm body (Aedes aegypti; 0.016 mg/mL (Table 3)): 90%; Percentage of repellence of mosquitoes Aedes aegypti landing on the warm body (Aedes aegypti; 0.4 mg/mL (Table 3)): 98%; Percentage of repellence of mosquitoes Aedes aegypti landing on the warm body (Aedes aegypti; 10 mg/mL (Table 3)): 98%; Percentage of repellence of ticks Ixodes ricinus on the warm plate (Ixodes ricinus; 0.4 mg/mL (Table 10)): 13.3%; Percentage of repellence of ticks Ixodes ricinus on the warm plate (Ixodes ricinus; 2 mg/mL (Table 10)): 57.1%; Percentage of repellence of ticks Ixodes ricinus on the warm plate (Ixodes ricinus; 10 mg/mL (Table 10)): 91.7%
